Test results from patent US20250129078A1, “ERBB2 INHIBITORS” (Cogent Biosciences, Inc., priority 2023, published 2025).
Counter-ions that a name gives are not always drawn.

Assays:
ErbB2 V777L = ErbB2 V777L (Homo sapiens (Human), UniProt P04626, V777L); test: ErbB enzyme assay (CisBio HTRF-KinEASE-TK), ErbB2 V777L; format: biochemical
How it was run: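 HTRF KinEASE-TK tyrosine-kinase read-out of substrate phosphorylation after a final 1 h at ambient temperature, from the 655/620 nm emission ratio.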

EGFR WT = EGFR WT (Homo sapiens (Human), UniProt P00533); test: ErbB enzyme assay (CisBio HTRF-KinEASE-TK), EGFR WT; format: biochemical; settings: ATP at Km (25 μM), 1 h incubation
Chain of EGFR WT (P00533 25-1210): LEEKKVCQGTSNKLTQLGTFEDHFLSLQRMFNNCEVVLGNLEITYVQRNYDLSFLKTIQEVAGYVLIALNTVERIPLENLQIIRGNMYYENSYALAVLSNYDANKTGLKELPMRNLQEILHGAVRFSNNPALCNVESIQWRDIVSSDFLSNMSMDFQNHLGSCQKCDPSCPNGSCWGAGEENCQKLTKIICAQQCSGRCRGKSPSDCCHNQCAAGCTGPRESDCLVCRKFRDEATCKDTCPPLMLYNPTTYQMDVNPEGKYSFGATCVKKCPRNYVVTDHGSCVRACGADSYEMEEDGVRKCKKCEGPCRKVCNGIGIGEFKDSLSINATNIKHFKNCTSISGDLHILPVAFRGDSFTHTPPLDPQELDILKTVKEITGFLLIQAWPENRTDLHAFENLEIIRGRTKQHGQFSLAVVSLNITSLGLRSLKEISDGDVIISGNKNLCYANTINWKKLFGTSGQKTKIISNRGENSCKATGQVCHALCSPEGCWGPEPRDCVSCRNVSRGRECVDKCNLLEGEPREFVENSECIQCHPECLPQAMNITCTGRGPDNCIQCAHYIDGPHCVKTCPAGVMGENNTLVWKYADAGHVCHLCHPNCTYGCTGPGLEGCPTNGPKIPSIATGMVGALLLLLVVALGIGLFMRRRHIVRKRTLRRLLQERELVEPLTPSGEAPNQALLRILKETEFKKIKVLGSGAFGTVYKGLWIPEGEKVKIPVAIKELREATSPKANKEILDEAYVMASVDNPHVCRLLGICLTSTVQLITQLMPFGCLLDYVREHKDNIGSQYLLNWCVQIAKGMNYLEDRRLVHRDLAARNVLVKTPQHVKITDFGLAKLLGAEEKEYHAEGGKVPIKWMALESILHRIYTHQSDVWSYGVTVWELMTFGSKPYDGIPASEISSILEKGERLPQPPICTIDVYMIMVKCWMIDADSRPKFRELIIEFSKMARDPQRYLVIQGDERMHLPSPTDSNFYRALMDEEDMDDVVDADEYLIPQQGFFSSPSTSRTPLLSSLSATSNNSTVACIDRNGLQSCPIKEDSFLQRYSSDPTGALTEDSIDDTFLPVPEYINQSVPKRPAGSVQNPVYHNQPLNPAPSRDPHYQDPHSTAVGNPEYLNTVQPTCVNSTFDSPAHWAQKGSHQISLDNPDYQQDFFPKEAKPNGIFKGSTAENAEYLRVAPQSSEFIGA
How it was run: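 HTRF KinEASE-TK kinase reactions ran 1 h at ambient temperature with three-fold serial compound dilutions, then were quenched with Sa-XL665 and TK-Ab-Cryptate. After 1 h more, 655/620 nm time-resolved fluorescence gave percent of control; a 4-parameter logistic fit defined IC50 at 50 POC.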

Chain of ErbB2 V777L (P04626 23-1255 V777L): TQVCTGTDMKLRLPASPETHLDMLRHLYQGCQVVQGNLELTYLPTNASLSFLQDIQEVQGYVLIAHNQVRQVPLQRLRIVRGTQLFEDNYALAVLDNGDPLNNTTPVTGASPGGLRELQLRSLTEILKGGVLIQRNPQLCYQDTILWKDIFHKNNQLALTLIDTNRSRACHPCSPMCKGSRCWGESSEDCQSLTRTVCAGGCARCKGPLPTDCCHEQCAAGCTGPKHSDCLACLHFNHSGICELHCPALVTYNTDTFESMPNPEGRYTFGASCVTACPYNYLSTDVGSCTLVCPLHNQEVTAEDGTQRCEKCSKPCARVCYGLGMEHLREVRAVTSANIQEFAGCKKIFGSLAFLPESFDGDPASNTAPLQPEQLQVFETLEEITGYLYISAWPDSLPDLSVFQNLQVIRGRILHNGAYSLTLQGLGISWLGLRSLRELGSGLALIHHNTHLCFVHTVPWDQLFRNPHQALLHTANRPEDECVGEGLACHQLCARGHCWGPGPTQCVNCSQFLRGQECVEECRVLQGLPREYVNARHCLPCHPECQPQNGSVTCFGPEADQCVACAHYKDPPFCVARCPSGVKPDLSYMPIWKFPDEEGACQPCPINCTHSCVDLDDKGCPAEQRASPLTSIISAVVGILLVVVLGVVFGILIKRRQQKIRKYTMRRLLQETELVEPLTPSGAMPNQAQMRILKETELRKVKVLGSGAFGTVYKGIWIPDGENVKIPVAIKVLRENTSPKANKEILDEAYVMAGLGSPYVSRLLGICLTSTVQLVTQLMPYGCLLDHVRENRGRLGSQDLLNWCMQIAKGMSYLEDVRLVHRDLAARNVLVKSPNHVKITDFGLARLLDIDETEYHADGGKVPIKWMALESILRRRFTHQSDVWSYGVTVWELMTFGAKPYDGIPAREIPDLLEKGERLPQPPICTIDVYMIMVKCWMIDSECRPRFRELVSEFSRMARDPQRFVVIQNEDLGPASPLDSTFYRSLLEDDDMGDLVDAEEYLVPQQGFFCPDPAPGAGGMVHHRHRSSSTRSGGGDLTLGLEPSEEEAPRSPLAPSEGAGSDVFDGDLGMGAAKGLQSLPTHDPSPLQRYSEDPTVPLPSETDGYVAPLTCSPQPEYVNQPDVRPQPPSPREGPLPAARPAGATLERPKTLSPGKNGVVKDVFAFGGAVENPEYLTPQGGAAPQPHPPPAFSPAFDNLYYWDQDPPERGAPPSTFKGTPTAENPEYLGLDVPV

SMILES	IC50 (ErbB2 V777L) [µM]	IC50 (EGFR WT) [µM]
C=CC(=O)N1C2CC1CN(c1ncc3ncnc(Nc4ccc(Oc5ccc6c(c5)nnn6C)c(C)c4)c3n1)C2 [Compound 60, 1-(3-(8-((3-methyl-4-((1-methyl-1H-benzo[d][1,2,3]triazol-5-yl)oxy)phenyl)amino)pyrimido[5,4-d]pyrimidin-2-yl)-3,6-diazabicyclo[3.1.1]heptan-6-yl)prop-2-en-1-one]	0.05 to 0.1	0.1 to 0.5
C=CC(=O)NC1CC=C(c2ccc3ncnc(Nc4ccc(Oc5ccc6c(c5)nnn6C)c(C)c4)c3n2)CC1 (stereo not shown) [Compound 412, N-(4-(4-((3-methyl-4-((1-methyl-1H-benzo[d][1,2,3]triazol-5-yl)oxy)phenyl)amino)pyrido[3,2-d]pyrimidin-6-yl)cyclohex-3-en-1-yl)acrylamide]	0.1 to 0.5	0.1 to 0.5
C=CC(=O)N1CCC(Oc2ncc3ncnc(Nc4ccc(Oc5ccn6ncnc6c5)c(C)c4)c3n2)C1 (stereo not shown) [Compound 377, 1-(3-((8-((4-([1,2,4]triazolo[1,5-a]pyridin-7-yloxy)-3-methylphenyl)amino)pyrimido[5,4-d]pyrimidin-2-yl)oxy)pyrrolidin-1-yl)prop-2-en-1-one]	0.1 to 0.5	0.1 to 0.5
C=CC(=O)N1CCN(c2ccc3ncnc(Nc4cc(F)c(Oc5ccc6c(c5)nnn6C)c(C)c4F)c3n2)CC1(C)C [Compound 327, 1-(4-(4-((2,5-difluoro-3-methyl-4-((1-methyl-1H-benzo[d][1,2,3]triazol-5-yl)oxy)phenyl)amino)pyrido[3,2-d]pyrimidin-6-yl)-2,2-dimethylpiperazin-1-yl)prop-2-en-1-one]	0.1 to 0.5	0.1 to 0.5
C=CC(=O)N1CC[C@@H]2CN(c3ncc4ncnc(Nc5ccc(Oc6ccc7c(c6)nnn7C)c(C)c5)c4n3)C[C@@H]21 [Compound 150, 1-((3aR,6aR)-5-(8-((3-methyl-4-((1-methyl-1H-benzo[d][1,2,3]triazol-5-yl)oxy)phenyl)amino)pyrimido[5,4-d]pyrimidin-2-yl)hexahydropyrrolo[3,4-b]pyrrol-1(2H)-yl)prop-2-en-1-one]	0.1 to 0.5	0.5 to 1
C=CC(=O)N[C@@H]1CCCN(c2ccc3ncnc(Nc4ccc(Oc5ccc6c(c5)nnn6C)c(C)c4F)c3n2)[C@H]1C (single isomer, unassigned) [Compound 349]	0.05 to 0.1	0.1 to 0.5
C=CC(=O)N1CCN(c2ncc3ncnc(Nc4cc(C)c(Oc5ccc6c(c5)nnn6C)cc4F)c3n2)CC1 [Compound 6, 1-(4-(8-((2-fluoro-5-methyl-4-((1-methyl-1H-benzo[d][1,2,3]triazol-5-yl)oxy)phenyl)amino)pyrimido [5,4-d]pyrimidin-2-yl)piperazin-1-yl)prop-2-en-1-one]	0.1 to 0.5	0.1 to 0.5
C=CC(=O)N[C@@H]1CCCCN(c2ccc3ncnc(Nc4ccc(Oc5ccc6c(c5)nnn6C)c(C)c4F)c3n2)C1 [Compound 289, (R)-N-(1-(4-((2-fluoro-3-methyl-4-((1-methyl-1H-benzo[d][1,2,3]triazol-5-yl)oxy)phenyl)amino)pyrido[3,2-d]pyrimidin-6-yl)azepan-3-yl)acrylamide]	0.5 to 1	0.1 to 0.5
C=CC(=O)N[C@@H]1CCCN(c2ncc3ncnc(Nc4ccc(Oc5ccc6c(c5)nnn6C)c(C)c4F)c3n2)C1 [Compound 157, (R)-N-(1-(8-((2-fluoro-3-methyl-4-((1-methyl-1H-benzo[d][1,2,3]triazol-5-yl)oxy)phenyl)amino)pyrimido[5,4-d]pyrimidin-2-yl)piperidin-3-yl)acrylamide]	0.05 to 0.1	0.1 to 0.5
C=CC(=O)N1C2CCCC1CC(c1ccc3ncnc(Nc4ccc(Oc5ccc6c(c5)nnn6C)c(C)c4)c3n1)C2 (stereo not shown) [Compound 395, 1-(3-(4-((3-methyl-4-((1-methyl-1H-benzo[d][1,2,3]triazol-5-yl)oxy)phenyl)amino)pyrido[3,2-d]pyrimidin-6-yl)-9-azabicyclo[3.3.1]nonan-9-yl)prop-2-en-1-one trifluoroacetate]	0.1 to 0.5	0.1 to 0.5
C=C(COC)C(=O)N1CC(F)(F)C12CN(c1ncc3ncnc(Nc4ccc(Oc5ccc6c(c5)nnn6C)c(C)c4)c3n1)C2 [Compound 214, 1-(3,3-difluoro-6-(8-((3-methyl-4-((1-methyl-1H-benzo[d][1,2,3]triazol-5-yl)oxy)phenyl)amino)pyrimido [5,4-d]pyrimidin-2-yl)-1,6-diazaspiro[3.3]heptan-1-yl)-2-(methoxymethyl) prop-2-en-1-one]	0.1 to 0.5	0.5 to 1
C=CC(=O)N1CC2CC1CN2c1ncc2ncnc(Nc3ccc(Oc4ccc5c(c4)nnn5C)c(C)c3)c2n1 (stereo not shown) [Compound 61, 1-(5-(8-((3-methyl-4-((1-methyl-1H-benzo[d][1,2,3]triazol-5-yl)oxy)phenyl)amino)pyrimido[5,4-d]pyrimidin-2-yl)-2,5-diazabicyclo[2.2.1]heptan-2-yl)prop-2-en-1-one]	0.05 to 0.1	< 0.05
C=CC(=O)N1CCN(c2ccc3ncnc(Nc4cc(C)c(Oc5ccc6c(c5)nnn6C)cc4OC(F)(F)F)c3n2)CC1 [Compound 312, 1-(4-(4-((5-methyl-4-((1-methyl-1H-benzo[d][1,2,3]triazol-5-yl)oxy)-2-(trifluoromethoxy)phenyl)amino)py-rido[3,2-d]pyrimidin-6-yl)piperazin-1-yl)prop-2-en-1-one]	0.1 to 0.5	0.1 to 0.5
C=CC(=O)N1C2CCC1CN(c1ncc3ncnc(Nc4cc(C)c(Oc5ccc6c(c5)ncn6C(F)F)cc4OC)c3n1)C2 [Compound 40, 1-(3-(8-((4-((1-(difluoromethyl)-1H-benzo[d]imidazol-5-yl)oxy)-2-methoxy-5-methylphenyl)amino)pyrimido[5,4-d]pyrimidin-2-yl)-3,8-diazabicyclo[3.2.1]octan-8-yl)prop-2-en-1-one 2,2,2-trifluoroacetate]	0.1 to 0.5	0.5 to 1
C=CC(=O)N1C[C@H]2C[C@@H]1CN(c1ncc3ncnc(Nc4ccc(Oc5cc(F)c6c(c5)ncn6C)c(C)c4F)c3n1)C2 [Compound 167, 1-((1S,5R)-3-(8-((2-fluoro-4-((7-fluoro-1-methyl-1H-benzo[d]imidazol-5-y1)oxy)-3-methylphenyl)amino)pyrimido[5,4-d]pyrimidin-2-yl)-3,6-diazabicyclo[3.2.1]octan-6-yl)prop-2-en-1-one]	0.1 to 0.5	< 0.05
C=CC(=O)N1CCN(c2ccc3ncnc(Nc4ccc(Oc5cc(F)c6c(c5)nnn6C)c(C)c4F)c3n2)CC1 [Compound 91, 1-(4-(4-((2-fluoro-4-((7-fluoro-1-methyl-1H-benzo[d][1,2,3]triazol-5-yl)oxy)-3-methylphenyl)amino)pyrido[3,2-d]pyrimidin-6-yl)piperazin-1-yl)prop-2-en-1-one]	0.05 to 0.1	< 0.05
C=CC(=O)N1CC(F)(F)C12CN(c1ncc3ncnc(Nc4ccc(Oc5ccc6c(c5)nnn6C)c(C)c4)c3n1)C2 [Compound 221, 1-(3,3-difluoro-6-(8-((3-methyl-4-((1-methyl-1H-benzo[d][1,2,3]triazol-5-yl)oxy)phenyl)amino)pyrimido[5,4-d]pyrimidin-2-yl)-1,6-diazaspiro[3.3]heptan-1-yl)prop-2-en-1-one]	0.05 to 0.1	< 0.05
C=CC(=O)N1C[C@@H]2C[C@H]1CN(c1ncc3ncnc(Nc4ccc(Oc5cc(F)c6c(c5)ncn6C)c(C)c4F)c3n1)C2 [Compound 175, 1-((1R,5S)-3-(8-((2-fluoro-4-((7-fluoro-1-methyl-1H-benzo[d]imidazol-5-y1)oxy)-3-methylphenyl)amino)pyrimido[5,4-d]pyrimidin-2-yl)-3,6-diazabicyclo[3.2.1]octan-6-yl)prop-2-en-1-one]	0.1 to 0.5	0.05 to 0.1
C=CC(=O)N1CCCN(c2ccc3ncnc(Nc4ccc(Oc5ccn6ncnc6c5)c(C)c4)c3n2)C[C@@H]1C [Compound 355, (S)-1-(4-(4-((4-([1,2,4]triazolo[1,5-a]pyridin-7-yloxy)-3-methylphenyl)amino)pyrido[3,2-d]pyrimidin-6-yl)-2-methyl-1,4-diazepan-1-yl)prop-2-en-1-one]	0.1 to 0.5	≥ 1
C=CC(=O)N(C)C1C2CN(c3ncc4ncnc(Nc5ccc(Oc6ccc7c(c6)nnn7C)c(C)c5F)c4n3)CC21 (stereo not shown) [Compound 226, N-(3-(8-((2-fluoro-3-methyl-4-((1-methyl-1H-benzo[d][1,2,3]triazol-5-yl)oxy)phenyl)amino)pyrimido[5,4-d]pyrimidin-2-yl)-3-azabicyclo[3.1.0]hexan-6-yl)-N-methylacrylamide]	0.1 to 0.5	0.1 to 0.5
C=CC(=O)N1CCC12CN(c1ncc3ncnc(Nc4ccc(Oc5ccc6c(c5)nnn6C)c(C)c4F)c3n1)C2 [Compound 67, 1-(6-(8-((2-fluoro-3-methyl-4-((1-methyl-1H-benzo[d][1,2,3]triazol-5-yl)oxy)phenyl)amino)pyrimido[5,4-d]pyrimidin-2-yl)-1,6-diazaspiro[3.3]heptan-1-yl)prop-2-en-1-one]	0.1 to 0.5	0.1 to 0.5
C=CC(=O)N1CCCN(c2ccc3ncnc(Nc4ccc(Oc5ccc6c(c5)nnn6C)c(C)c4)c3n2)CC1 [Compound 308, 1-(4-(4-((3-methyl-4-((1-methyl-1H-benzo[d][1,2,3]triazol-5-yl)oxy)phenyl)amino)pyrido[3,2-d]pyrimidin-6-yl)-1,4-diazepan-1-yl)prop-2-en-1-one]	0.1 to 0.5	0.5 to 1
C=CC(=O)N1C[C@H]2CN(c3ncc4ncnc(Nc5ccc(Oc6ccc7c(c6)nnn7C)c(C)c5)c4n3)C[C@H]21 [Compound 243, cis-1-((1r,5s)-3-(8-((3-methyl-4-((1-methyl-1H-benzo[d][1,2,3]triazol-5-yl)oxy)phenyl)amino)pyrimido[5,4-d]pyrimidin-2-yl)-3,6-diazabicyclo[3.2.0]heptan-6-yl)prop-2-en-1-one]	0.1 to 0.5	0.1 to 0.5
